This experiment deals with T1, VtlG (P450).
T1 construct: recombinant from E. coli, purified; haem P450 monooxygenase
The experiment in a line: UPLC product quantification at […] nm, Michaelis-Menten fit. As to conditions: mono-hydroxylation of 4 to 6; 5 nM VtlG, commercial spinach Fd 0.1 mg/mL, spinach FNR 1 unit/mL, 1 mM NADPH; 50 mM Tris-HCl pH 7.5, 30 °C. The class given is biochemical, Streptomyces spiroverticillatus.

One may read the Km as the substrate concentration at which the rate is half of its maximum.

As to `CC1=CC=CC=CC(C)CNC(=O)CC(=O)C=CC=CCC(O)CC(O)C=CC=C1` (stereo not shown) [compound 4], the Km was found to be 0.84 ± 0.26 µM.

The values above are taken from article PMC11236979, “Iron-sulphur protein catalysed [4+2] cycloadditions in natural product biosynthesis” (Nature Communications, 2024).
